# Reference: publication PMC2567432 (PLoS ONE, 2008)
# Target: T1, glyoxalase 1 (Glo1) (Homo sapiens, UniProt Q04760)
# T1 construct: Glo1 was purified from human erythrocytes as described earlier; from tissue; host or cells: human erythrocytes
# T1 sequence (Q04760 2-184 limits assumed): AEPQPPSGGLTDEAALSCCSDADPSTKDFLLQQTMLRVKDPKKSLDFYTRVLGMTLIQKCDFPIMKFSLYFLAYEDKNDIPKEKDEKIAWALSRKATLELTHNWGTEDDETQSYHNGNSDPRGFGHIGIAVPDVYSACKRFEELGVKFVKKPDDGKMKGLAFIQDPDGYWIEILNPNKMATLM
# Assay: Inhibition of purified glyoxalase 1 activity (Dixon plot)
# Assay type: biochemical
# Conditions: Dixon plot / model fit
# Description: Purified Glo1 (70 mU) was incubated with increasing concentrations of different polyphenols at three substrate concentrations; and enzyme activity was recorded (n = 3). The inhibitor concentration was plotted vs. the reciprocal of enzyme activity (1/v) in Dixon plots.
# Glo1 was purified from human erythrocytes as described earlier. Briefly, erythrocytes were treated with butanol/chloroform to denature hemoglobin followed by acetone and ammonium sulphate fractionation.
# The determination of Glo1 (E.C.4.4.1.5) activity has been described previously. […] The inhibition constant, Ki value of the inhibitors was evaluated by Dixon plot showing the reciprocal of enzyme velocity against the inhibitor concentration at variable concentrations of the substrate. Human Glo2 (E.C.3.1.2.6) was measured using the substrate S-lactoylglutathione as described earlier.
# A goodness-of-fit criterion (Akaike's information criterion, AIC) was used for falsification of incompatible inhibition models. […] Spearman's rank correlation test was applied to evaluate the correlation between the IC50 values of pro-inflammatory cytokine release and the Ki-values of various polyphenols. Data were presented as means±S.D. of at least three independent experiments. […] In all other tests, significance has been considered at values of p<0.05.
compound,measurement,value
"COc1cc(C=CC(=O)CC(=O)C=Cc2ccc(O)c(OC)c2)ccc1O [curcumin, 1,7-bis(4-hydroxy-3-methoxyphenyl)-1,6-heptadiene-3,5-dione]",mode of enzyme inhibition,competitive
